Data published in patent US12077503B2, “Substituted cyclic amides and their use as herbicides” (FMC CORPORATION, priority 2015, dated 2024).

Columns and labels:
Type in all cases: in vivo
Kochia (Kochia scoparia) [1] = assay: Test A preemergence; conditions: Bassia scoparia, pre-emergence, 240 h; for pest or weed control at 125 g/ha: 125 g ai/ha, preemergence, 0 to 100 scale where 0 is no effect and 100 is complete control, read-out: Kochia plant response rating; for pest or weed control at 500 g/ha: 500 g ai/ha, Preemergence, visual injury vs untreated controls after approximately 10 d, read-out: Kochia plant response rating (0 to 100 scale where 0 is no effect and 100 is complete control)
Outline: (§1)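 Ratings of 0 (no effect) to 100 (complete control) come from visual comparison with untreated controls roughly 10 d after treatment. Test chemicals, formulated in a non-phytotoxic solvent mixture with surfactant, were applied either as a preemergence directed soil spray on seeded soil or postemergence to one- to two-leaf plants 2 to 10 cm tall.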

[2] = test system: barnyardgrass (Echinochloa crus-galli); assay: Test A preemergence; conditions: Echinochloa crus-galli, pre-emergence, 240 h; for pest or weed control at 125 g/ha: 125 g ai/ha, preemergence, 0 to 100 scale where 0 is no effect and 100 is complete control, read-out: Barnyardgrass plant response rating; for pest or weed control at 500 g/ha: 500 g ai/ha, Preemergence, visual injury vs untreated controls after approximately 10 d, read-out: Barnyardgrass plant response rating (0 to 100 scale where 0 is no effect and 100 is complete control)
Outline: as §1

[3] = test system: giant foxtail (Setaria faberii); assay: Test A preemergence; conditions: Setaria faberi, pre-emergence, 240 h; for pest or weed control at 125 g/ha: 125 g ai/ha, preemergence, 0 to 100 scale where 0 is no effect and 100 is complete control, read-out: Foxtail, Giant plant response rating; for pest or weed control at 500 g/ha: 500 g ai/ha, Preemergence, visual injury vs untreated controls after approximately 10 d, read-out: Foxtail, Giant plant response rating (0 to 100 scale where 0 is no effect and 100 is complete control)
Outline: as §1

[4] = test system: pigweed (Amaranthus retroflexus); assay: Test A preemergence; conditions: Amaranthus retroflexus, pre-emergence, 240 h; for pest or weed control at 125 g/ha: 125 g ai/ha, preemergence, 0 to 100 scale where 0 is no effect and 100 is complete control, read-out: Pigweed plant response rating; for pest or weed control at 500 g/ha: 500 g ai/ha, Preemergence, visual injury vs untreated controls after approximately 10 d, read-out: Pigweed plant response rating (0 to 100 scale where 0 is no effect and 100 is complete control)
[5] = test system: ragweed (common ragweed, Ambrosia elatior); assay: Test A preemergence; conditions: Ambrosia artemisiifolia, pre-emergence, 240 h; for pest or weed control at 125 g/ha: 125 g ai/ha, preemergence, 0 to 100 scale where 0 is no effect and 100 is complete control, read-out: Ragweed plant response rating; for pest or weed control at 500 g/ha: 500 g ai/ha, Preemergence, visual injury vs untreated controls after approximately 10 d, read-out: Ragweed plant response rating (0 to 100 scale where 0 is no effect and 100 is complete control)
Outline: as §1

[6] = test system: ryegrass, Italian (Italian ryegrass, Lolium multiflorum); assay: Test A preemergence; conditions: Lolium multiflorum, pre-emergence, 240 h; for pest or weed control at 125 g/ha: 125 g ai/ha, preemergence, 0 to 100 scale where 0 is no effect and 100 is complete control, read-out: Ryegrass, Italian plant response rating; for pest or weed control at 500 g/ha: 500 g ai/ha, Preemergence, visual injury vs untreated controls after approximately 10 d, read-out: Ryegrass, Italian plant response rating (0 to 100 scale where 0 is no effect and 100 is complete control)
Outline: as §1

[7] = test system: Galium (catchweed bedstraw, Galium aparine); assay: Test A postemergence; conditions: Galium, post-emergence, 240 h, 125 g ai/ha, postemergence, visual injury rating after approximately 10 d; read-out: Galium plant response rating (0 to 100 scale, 0 no effect, 100 complete control)
Outline: as §1

Kochia (Kochia scoparia) [8] = assay: Test A postemergence; conditions: Bassia scoparia, post-emergence, 240 h, 125 g ai/ha, postemergence, visual injury rating after approximately 10 d; read-out: Kochia plant response rating (0 to 100 scale, 0 no effect, 100 complete control)
Outline: as §1

[9] = test system: ragweed (common ragweed, Ambrosia elatior); assay: Test A postemergence; conditions: Ambrosia artemisiifolia, post-emergence, 240 h, 125 g ai/ha, postemergence, visual injury rating after approximately 10 d; read-out: Ragweed plant response rating (0 to 100 scale, 0 no effect, 100 complete control)
Outline: as §1

[10] = test system: ryegrass, Italian (Italian ryegrass, Lolium multiflorum); assay: Test A postemergence; conditions: Lolium multiflorum, post-emergence, 240 h, 125 g ai/ha, postemergence, visual injury rating after approximately 10 d; read-out: Ryegrass, Italian plant response rating (0 to 100 scale, 0 no effect, 100 complete control)
Outline: as §1

[11] = test system: wheat (Triticum aestivum); assay: Test A postemergence; conditions: Triticum aestivum, post-emergence, 240 h, 125 g ai/ha, postemergence, visual injury rating after approximately 10 d; read-out: Wheat plant response rating (0 to 100 scale, 0 no effect, 100 complete control)
Outline: as §1

[12] = test system: barnyardgrass (Echinochloa crus-galli); assay: Test B flooded paddy test; conditions: Echinochloa crus-galli, Flood, 250 g ai/ha; scale of 0 to 100 where 0 is no effect and 100 is complete control; read-out: Barnyardgrass plant response rating
Outline: (§2)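 Visual ratings (0 none to 100 complete control) are relative to untreated plants, taken 13–15 d after treatment in a greenhouse. Test material went straight into floodwater standing 3 cm above the soil, kept constant, on plants at the 2-leaf stage.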

[13] = test system: ducksalad (Heteranthera limosa); assay: Test B flooded paddy test; conditions: Heteranthera limosa, Flood, 250 g ai/ha; scale of 0 to 100 where 0 is no effect and 100 is complete control; read-out: Ducksalad plant response rating
Outline: as §2

rice (Oryra sativa) = assay: Test B flooded paddy test; conditions: Oryza sativa, Flood, 250 g ai/ha; scale of 0 to 100 where 0 is no effect and 100 is complete control; read-out: Rice plant response rating
Outline: as §2

[14] = test system: sedge, umbrella (small-flower umbrella sedge, Cyperus difformis); assay: Test B flooded paddy test; conditions: Cyperus difformis, Flood, 250 g ai/ha; scale of 0 to 100 where 0 is no effect and 100 is complete control; read-out: Sedge, Umbrella plant response rating
Outline: as §2

Structure (SMILES) | pest or weed control at 125 g/ha (Kochia (Kochia scoparia) [1]) [%] | pest or weed control at 500 g/ha (Kochia (Kochia scoparia) [1]) [%] | pest or weed control at 125 g/ha [2] [%] | pest or weed control at 500 g/ha [2] [%] | pest or weed control at 125 g/ha [3] [%] | pest or weed control at 500 g/ha [3] [%] | pest or weed control at 125 g/ha [4] [%] | pest or weed control at 500 g/ha [4] [%] | pest or weed control at 125 g/ha [5] [%] | pest or weed control at 500 g/ha [5] [%] | pest or weed control at 125 g/ha [6] [%] | pest or weed control at 500 g/ha [6] [%] | pest or weed control at 125 g/ha [7] [%] | pest or weed control at 125 g/ha (Kochia (Kochia scoparia) [8]) [%] | pest or weed control at 125 g/ha [9] [%] | pest or weed control at 125 g/ha [10] [%] | plant injury at 125 g/ha [11] [%] | pest or weed control at 250 g/ha [12] [%] | pest or weed control at 250 g/ha [13] [%] | pest or weed control at 250 g/ha (rice (Oryra sativa)) [%] | also measured
CC(C)(C)c1ccc([C@H]2CNC(=O)[C@@H]2C(=O)Nc2cccc(F)c2F)cc1 [Compound 847] | 0 | 0 | 0 | 60 | 0 | 50 | 0 | 0 | 0 | 0 | 0 | 0 | 0 | 0 | 0 | 0 | 0 | 0 | 90 | 0 | pest or weed control at 250 g/ha [14]: 0%
COc1cc([C@H]2CN(C)C(=O)[C@@H]2C(=O)Nc2ccccc2SC)cc(C(F)(F)F)c1 [Compound 857] | 0 | 30 | 90 | 90 | 80 | 90 | 60 | 70 | 0 | 30 | 40 | 60 | 20 | 20 | 0 | 20 | 30 | 60 | 80 | 0 | pest or weed control at 250 g/ha [14]: 80%
COc1cc(C(F)(F)F)ccc1[C@H]1CN(C)C(=O)[C@@H]1C(=O)Nc1ccccc1F [Compound 858] | 60 | 70 | 90 | 90 | 90 | 90 | 20 | 50 | 0 | 30 | 30 | 70 | 30 | 20 | 0 | 20 | 20 | 45 | 100 | 0 | pest or weed control at 250 g/ha [14]: 0%
CSc1ccccc1NC(=O)[C@H]1C(=O)N(C)C[C@@H]1c1cccc(OC(F)(F)C(F)F)c1 [Compound 862] | 70 | 70 | 90 | 100 | 90 | 90 | 80 | 90 | 90 | 100 | 0 | 20 | 60 | 40 | 0 | 20 | 0 | 0 | 90 | 0 | pest or weed control at 250 g/ha [14]: 0%
Cc1c(F)cccc1NC(=O)[C@H]1C(=O)N(C)C[C@@H]1c1cc(F)c(F)c(F)c1 [Compound 867] | 50 | 70 | 90 | 90 | 90 | 90 | 0 | 30 | 0 | 30 | 60 | 60 | 30 | 0 | 0 | 20 | 20 | 65 | 100 | 30 | pest or weed control at 250 g/ha [14]: 30%
CN1C[C@H](c2cc(F)cc(F)c2)[C@@H](C(=O)Nc2ncc(C(F)(F)F)cc2F)C1=O [Compound 868] | 0 | 0 | 30 | 60 | 20 | 60 | 0 | 0 | 0 | 0 | 0 | 0 | 0 | 0 | 0 | 0 | 0 | 0 | 0 | 0 | pest or weed control at 250 g/ha [14]: 0%
